Data as given in patent US20250276972A1, “COMPOUNDS AS CASEIN KINASE INHIBITORS” (GRITSCIENCE BIOPHARMACEUTICALS CO.,LTD., priority 2020, published 2025).

Tested on: not listed separately
Assay: Intrinsic clearance in liver microsomes (mouse)
Type: in vitro ADME
Settings: Mouse liver microsomes 0.5 mg/mL, 2 μM compound, 37° C.; read-out: in vitro CLint (μL/min/mg protein)
Procedure: (§1) • 1. The master solution was prepared according to Table 5.
(§2) • 2. Three separated experiments were performed as follows. a) With NADPH: 10 μL of 20 mg/mL liver microsomes and 40 μL of 10 mM NADPH were added to the incubations. The final concentrations of microsomes and NADPH were 0.5 mg/mL and 1 mM, respectively. b) Without NADPH: 10 μL of 20 mg/mL liver microsomes and 40 μL of ultra-pure H2O were added to the incubations. The final concentration of microsomes was 0.5 mg/mL. c) Heat-inactivated microsomes without NADPH: 10 μL of 20 mg/mL heat-inactivated liver microsomes and 40 μL of ultra-pure H2O were added to the incubations. The final concentration of microsomes was 0.5 mg/mL. • 3. The reaction was started with the addition of 4 μL of 200 μM test compound solution or control compound solution at the final concentration of 2 μM and carried out at 37° C. • 4. Aliquots of 50 μL were taken from the reaction solution at 0, 15, 30, 45 and 60 min. […] Samples were centrifuged at 3, 220 g for 40 minutes. […] Data Analysis
(§3) Peak areas were determined from extracted ion chromatograms. The slope value, k, was determined by linear regression of the natural logarithm of the remaining percentage of the parent drug vs. incubation time curve.
(§4) The in vitro half-life (in vitro t1/2) was determined from the slope value:
(§5) Conversion of the in vitro t1/2 (min) into the in vitro intrinsic clearance (in vitro CLint, in μL/min/mg protein) was done using the following equation (mean of duplicate determinations): […]

Row | SMILES | microsomal CLint at 2 μM
1 | Cc1cc(-c2c(-c3ccc(F)cc3)nn3c2CN(Cc2ncccn2)CC3)ccn1 [Compound I-9, 2-(4-fluorophenyl)-3-(2-methylpyridin-4-y)-5-(pyrimidin-2-ylmethyl)-4,5,6,7-tetrahydropyrazolo[1,5-a]pyrazine] | 43.4 µL/min/mg

Same assay, conditions: Mouse liver microsomes 0.5 mg/mL, 2 μM compound, 37° C.; read-out: in vitro t1/2

Row | SMILES | half-life at 2 μM
2 | Cc1cc(-c2c(-c3ccc(F)cc3)nn3c2CN(Cc2ncccn2)CC3)ccn1 [Compound I-9, 2-(4-fluorophenyl)-3-(2-methylpyridin-4-y)-5-(pyrimidin-2-ylmethyl)-4,5,6,7-tetrahydropyrazolo[1,5-a]pyrazine] | 0.532 h

Molecular target: T1, CK1δ (Homo sapiens, UniProt P48730)
T1 construct: endogenous in cells; host or cells: Bmal1-dLuc or Per2-dLuc U2OS cells
T1 sequence (P48730 whole entry): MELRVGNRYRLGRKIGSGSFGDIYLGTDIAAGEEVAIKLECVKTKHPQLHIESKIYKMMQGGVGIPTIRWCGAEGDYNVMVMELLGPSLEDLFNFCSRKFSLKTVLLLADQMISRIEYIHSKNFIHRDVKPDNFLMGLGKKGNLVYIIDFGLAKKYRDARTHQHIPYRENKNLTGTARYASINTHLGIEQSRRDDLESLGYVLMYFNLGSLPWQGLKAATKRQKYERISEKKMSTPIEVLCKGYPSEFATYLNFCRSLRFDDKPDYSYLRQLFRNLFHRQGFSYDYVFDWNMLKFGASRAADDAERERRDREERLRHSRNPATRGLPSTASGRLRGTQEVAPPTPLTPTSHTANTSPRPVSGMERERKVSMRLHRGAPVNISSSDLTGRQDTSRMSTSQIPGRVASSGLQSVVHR
Assay: CK1δ inhibition (EC50); Bmal1-dLuc or Per2-dLuc U2OS luminescence rhythm period assay
Type: cell-based
Settings: Table 3
Procedure: Bmall-dLuc or Per2-dLuc U2OS cells were suspended in the culture medium (DMEM supplemented with 10% fetal bovine serum, 0.29 mg/mL L-glutamine, 100 units/mL penicillin, and […] streptomycin) and plated onto 96-well white solid-bottom plates at 200 μL (10,000 cells) per well. After 2 days, 100 μL of the explant medium (DMEM supplemented with 2% B27, 10 mM HEPES, 0.38 mg/mL sodium bicarbonate, 0.29 mg/mL L-glutamine, 100 units/mL penicillin, […], 0.1 mg/mL gentamicin, and 1 mM luciferin, pH 7.2) was dispensed to each well, followed by the application of 1 μL of a compound of the present application (dissolved in DMSO; final concentration was 0.7% in DMSO). The plate was covered with an optically clear film and set to microplate reader (Infinite M200, Tecan).

Row | SMILES | EC50
3 | CC(=O)Nc1cc(-c2c(-c3ccc(F)cc3)nn3c2CNCC3)ccn1 [Compound I-99, N-(4-(2-(4-fluorophenyl)-4,5,6,7-tetrahydropyrazolo[1,5-a]pyrazin-3-yl)pyridin-2-yl)acetamide] | 700 nM
4 | CC(=O)Nc1cc(-c2c(-c3ccc(F)cc3)nn3c2CN(C2CC2)CC3)ccn1 [Compound I-28] | 600 nM
5 | CC(=O)Nc1cc(-c2c(-c3ccc(F)cc3)nn3c2CN(C(C)C)CC3)ccn1 [Compound I-27, N-(4-(2-(4-fluorophenyl)-5-isopropyl-4,5,6,7-tetrahydropyrazolo[1,5-a]pyrazin-3-yl)pyridin-2-yl)acetamide] | 500 nM
6 | CC(=O)Nc1cc(-c2c(-c3ccc(F)cc3)nn3c2CN(Cc2ccccc2)CC3)ccn1 [Compound I-95, N-(4-(5-benzyl-2-(4-fluorophenyl)-4,5,6,7-tetrahydropyrazolo[1,5-a]pyrazin-3-yl)pyridin-2-yl)acetamide] | 1700 nM
7 | CS(=O)(=O)N1CCn2nc(-c3ccc(F)cc3)c(-c3ccnc(N)c3)c2C1 [Compound I-25, 4-(2-(4-fluorophenyl)-5-(methylsulfonyl)-4,5,6,7-tetrahydropyrazolo[1,5-a]pyrazin-3-yl)pyridin-2-amine] | 670 nM
8 | CNCCN1CCn2nc(-c3ccc(F)cc3)c(-c3ccnc(NC(C)=O)c3)c2C1 [Compound I-41, N-(4-(2-(4-fluorophenyl)-5-(2-(methylamino)ethyl)-4,5,6,7-tetrahydropyrazolo[1,5-a]pyrazin-3-yl)pyridin-2-yl)acetamide] | 600 nM
9 | O=C(Cc1ccc(F)cc1)Nc1cc(-c2c(-c3ccc(F)cc3)nn3c2CN(Cc2ccccc2)CC3)ccn1 [Compound I-94, N-(4-(5-benzyl-2-(4-fluorophenyl)-4,5,6,7-tetrahydropyrazolo[1,5-a]pyrazin-3-yl)pyridin-2-yl)-2-(4-fluorophenyl)acetamide] | 200 nM
10 | CC(=O)N1CCn2nc(-c3ccc(F)cc3)c(-c3ccnc(NC(=O)Cc4ccccc4)c3)c2C1 [Compound I-72, N-(4-(5-acetyl-2-(4-fluorophenyl)-4,5,6,7-tetrahydropyrazolo[1,5-a]pyrazin-3-yl)pyridin-2-yl)-2-phenylacetamide] | 10 nM
11 | CC(=O)Nc1cc(-c2c(-c3ccc(F)cc3)nn3c2CN(CCO)CC3)ccn1 [Compound I-31, N-(4-(2-(4-fluorophenyl)-5-(2-hydroxyethyl)-4,5,6,7-tetrahydropyrazolo[1,5-a]pyrazin-3-yl)pyridin-2-yl)acetamide] | 300 nM
12 | Cc1cc(-c2c(-c3ccc(F)cc3)nn3c2CN(C2COC2)CC3)ccn1 [Compound I-12, 2-(4-fluorophenyl)-3-(2-methylpyridin-4-yl)-5-(oxetan-3-yl)-4,5,6,7-tetrahydropyrazolo[1,5-a]pyrazine] | 20000 nM
13 | CC(=O)Nc1cc(-c2c(-c3ccc(F)cc3)nn3c2CN(C2CC(F)C2)CC3)ccn1 (stereo not drawn) [Compound I-49, N-(4-(5-(3-fluorocyclobutyl)-2-(4-fluorophenyl)-4,5,6,7-tetrahydropyrazolo[1,5-a]pyrazin-3-yl)pyridin-2-yl)acetamide] | 1300 nM
14 | CCN1CCn2nc(-c3ccc(F)cc3)c(-c3ccnc(NC(C)=O)c3)c2C1 [Compound I-26, N-(4-(5-ethyl-2-(4-fluorophenyl)-4,5,6,7-tetrahydropyrazolo[1,5-a]pyrazin-3-yl)pyridin-2-yl)acetamide] | 400 nM
15 | CCCC(=O)Nc1cc(-c2c(-c3ccc(F)cc3)nn3c2CN(C(=O)CCC)CC3)ccn1 [Compound I-56, N-(4-(5-butyryl-2-(4-fluorophenyl)-4,5,6,7-tetrahydropyrazolo[1,5-a]pyrazin-3-yl)pyridin-2-yl)butyramide] | 600 nM
16 | CC(=O)Nc1cc(-c2c(-c3ccc(F)cc3)nn3c2CN(C(C)=S)CC3)ccn1 [Compound I-57] | 500 nM
17 | CC(=O)Nc1cc(-c2c(-c3ccc(F)cc3)nn3c2CN(C(=O)C(F)(F)F)CC3)ccn1 [Compound I-30, N-(4-(2-(4-fluorophenyl)-5-(2,2,2-trifluoroacetyl)-4,5,6,7-tetrahydropyrazolo[1,5-a]pyrazin-3-yl)pyridin-2-yl)acetamide] | 500 nM
18 | CC(C)C(=O)Nc1cc(-c2c(-c3ccc(F)cc3)nn3c2CN(C(=O)C(C)C)CC3)ccn1 [Compound I-98, N-(4-(2-(4-fluorophenyl)-5-isobutyryl-4,5,6,7-tetrahydropyrazolo[1,5-a]pyrazin-3-yl)pyridin-2-yl)isobutyramide] | 2100 nM
19 | CC(=O)N1CCn2nc(-c3ccc(F)cc3)c(-c3ccnc(NC(=O)CC4CC4)c3)c2C1 [Compound I-75, N-(4-(5-acetyl-2-(4-fluorophenyl)-4,5,6,7-tetrahydropyrazolo[1,5-a]pyrazin-3-yl)pyridin-2-yl)-2-cyclopropylacetamide] | 200 nM
20 | CC(=O)N1CCn2nc(-c3ccc(F)cc3)c(-c3ccnc(NC(=O)c4ccn(C)n4)c3)c2C1 [Compound I-76, N-(4-(5-acetyl-2-(4-fluorophenyl)-4,5,6,7-tetrahydropyrazolo[1,5-a]pyrazin-3-yl)pyridin-2-yl)-1-methyl-1H-pyrazole-3-carboxamide] | 1000 nM
21 | CC(C)(C)C(=O)Nc1cc(-c2c(-c3ccc(F)cc3)nn3c2CN(S(C)(=O)=O)CC3)ccn1 [Compound I-32, N-(4-(2-(4-fluorophenyl)-5-(methylsulfonyl)-4,5,6,7-tetrahydropyrazolo[1,5-a]pyrazin-3-yl)pyridin-2-yl)pivalamide] | 800 nM
22 | CCC(=O)Nc1cc(-c2c(-c3ccc(F)cc3)nn3c2CN(C(=O)CC)CC3)ccn1 [Compound I-97, N-(4-(2-(4-fluorophenyl)-5-propionyl-4,5,6,7-tetrahydropyrazolo[1,5-a]pyrazin-3-yl)pyridin-2-yl)propionamide] | 900 nM
23 | CC(=O)Nc1cc(-c2c(-c3ccc(F)cc3)nn3c2CN(C)CC3)ccn1 [Compound I-71, N-(4-(2-(4-fluorophenyl)-5-methyl-4,5,6,7-tetrahydropyrazolo[1,5-a]pyrazin-3-yl)pyridin-2-yl)acetamide] | 1000 nM
24 | CC(=O)N1CCn2nc(-c3ccc(F)cc3)c(-c3ccnc(Nc4ccccc4)c3)c2C1 [Compound I-74, 1-(2-(4-fluorophenyl)-3-(2-(phenylamino)pyridin-4-yl)-6,7-dihydropyrazolo[1,5-a]pyrazin-5(4H)-yl)ethan-1-one] | 1600 nM
25 | CC(=O)N1CCn2nc(-c3ccc(F)cc3)c(-c3ccnc(NC(=O)c4ccccc4)c3)c2C1 [Compound I-73, N-(4-(5-acetyl-2-(4-fluorophenyl)-4,5,6,7-tetrahydropyrazolo[1,5-a]pyrazin-3-yl)pyridin-2-yl)benzamide] | 110 nM
26 | CC(=O)N1CCn2nc(-c3ccc(F)cc3)c(-c3ccnc(Nc4ccncc4)c3)c2C1 [Compound I-101, 1-(2-(4-fluorophenyl)-3-(2-(pyridin-4-ylamino)pyridin-4-yl)-6,7-dihydropyrazolo[1,5-a]pyrazin-5(4H)-yl)ethan-1-one] | 2200 nM
27 | CC(=O)Nc1cc(-c2c(-c3ccc(F)cc3)nn3c2CN(C2COC2)CC3)ccn1 [Compound I-46, N-(4-(2-(4-fluorophenyl)-5-(oxctan-3-yl)-4,5,6,7-tetrahydropyrazolo[1,5-a]pyrazin-3-yl)pyridin-2-yl)acetamide] | 1200 nM
28 | CC(=O)Nc1cc(-c2c(-c3ccc(F)cc3)nn3c2CN(CC(F)(F)F)CC3)ccn1 [Compound I-29, N-(4-(2-(4-fluorophenyl)-5-(2,2,2-trifluoroethyl)-4,5,6,7-tetrahydropyrazolo[1,5-a]pyrazin-3-yl)pyridin-2-yl)acetamide] | 600 nM

Tested on: not listed separately
Assay: Intrinsic clearance in liver microsomes (human)
Type: in vitro ADME
Settings: Human liver microsomes 0.5 mg/mL, 2 μM compound, 37° C.; read-out: in vitro CLint (μL/min/mg protein)
Procedure: as §1, §2, §3, §4, §5

Row | SMILES | microsomal CLint at 2 μM
29 | Cc1cc(-c2c(-c3ccc(F)cc3)nn3c2CN(Cc2ncccn2)CC3)ccn1 [Compound I-9, 2-(4-fluorophenyl)-3-(2-methylpyridin-4-y)-5-(pyrimidin-2-ylmethyl)-4,5,6,7-tetrahydropyrazolo[1,5-a]pyrazine] | 12.4 µL/min/mg

Same assay, conditions: Human liver microsomes 0.5 mg/mL, 2 μM compound, 37° C.; read-out: in vitro t1/2

Row | SMILES | half-life at 2 μM
30 | Cc1cc(-c2c(-c3ccc(F)cc3)nn3c2CN(Cc2ncccn2)CC3)ccn1 [Compound I-9, 2-(4-fluorophenyl)-3-(2-methylpyridin-4-y)-5-(pyrimidin-2-ylmethyl)-4,5,6,7-tetrahydropyrazolo[1,5-a]pyrazine] | 1.86 h
